Measurements from ChEMBL document CHEMBL1127385, “Synthesis and diuretic activity of alkyl- and arylguanidine analogs of N,N'-dicyclohexyl-4-morpholinecarboxamidine in rats and dogs” (J Med Chem, 1994).
Each block holds one compound with its values, some of them ahead of it.

Legend:
Rattus norvegicus [1] = experiment: Total electrolytic excretion of potassium in urine of rats after peroral administration of 27 uM/Kg of drug; assay type: ADME, organism-based; details: in vivo, po
Rattus norvegicus [2] = experiment: Total electrolytic excretion of chlorine in urine of rats after peroral administration of 27 uM/Kg of drug; assay type: ADME, organism-based; details: in vivo, po
Rattus norvegicus [3] = experiment: Total electrolytic excretion of sodium in urine of rats after peroral administration of 27 uM/Kg of drug; assay type: ADME, organism-based; details: in vivo, po
Rattus norvegicus [4] = experiment: Ratio of Total electrolytic excretion of sodium and potassium in urine of rats after peroral administration of 27 uM/Kg of drug; assay type: ADME, organism-based; details: in vivo, po
Rattus norvegicus [5] = experiment: Tested for the diuretic activity by measuring the urinary volume after peroral administering 270 uM/Kg of drug in rats; assay type: ADME, organism-based, Urine; details: in vivo, po
Rattus norvegicus [6] = experiment: Ratio of Total electrolytic excretion of sodium and potassium in urine of rats after peroral administration of 80.9 uM/Kg of drug; assay type: ADME, organism-based; details: in vivo, po
Rattus norvegicus [7] = experiment: Total electrolytic excretion of chlorine in urine of rats after peroral administration of 80.9 uM/Kg of drug; assay type: ADME, organism-based; details: in vivo, po
Rattus norvegicus [8] = experiment: Total electrolytic excretion of potassium in urine of rats after peroral administration of 270 uM/Kg of drug; assay type: ADME, organism-based; details: in vivo, po
Rattus norvegicus [9] = experiment: Total electrolytic excretion of sodium in urine of rats after peroral administration of 270 uM/Kg of drug; assay type: ADME, organism-based; details: in vivo, po
Rattus norvegicus [10] = experiment: Tested for the diuretic activity by measuring the urinary volume after peroral administering 80.9 uM/Kg of drug in rats; assay type: ADME, organism-based, Urine; details: in vivo, po
Rattus norvegicus [11] = experiment: Tested for the diuretic activity by measuring the urinary volume after peroral administering 27 uM/Kg of drug in rats; assay type: ADME, organism-based, Urine; details: in vivo, po
Rattus norvegicus [12] = experiment: Total electrolytic excretion of sodium in urine of rats after peroral administration of 80.9 uM/Kg of drug; assay type: ADME, organism-based; details: in vivo, po
Rattus norvegicus [13] = experiment: Total electrolytic excretion of potassium in urine of rats after peroral administration of 80.9 uM/Kg of drug; assay type: ADME, organism-based; details: in vivo, po
Rattus norvegicus [14] = experiment: Ratio of Total electrolytic excretion of sodium and potassium in urine of rats after peroral administration of 270 uM/Kg of drug; assay type: ADME, organism-based; details: in vivo, po
Rattus norvegicus [15] = experiment: Total electrolytic excretion of chlorine in urine of rats after peroral administration of 270 uM/Kg of drug; assay type: ADME, organism-based; details: in vivo, po
Rattus norvegicus [16] = experiment: Total electrolytic excretion of potassium in urine of rats after peroral administration of 37.6 uM/Kg of drug; assay type: ADME, organism-based; details: in vivo, po
Rattus norvegicus [17] = experiment: Total electrolytic excretion of sodium in urine of rats after peroral administration of 11.3 uM/Kg of drug; assay type: ADME, organism-based; details: in vivo, po
Canis familiaris [18] = experiment: Total electrolytic excretion of sodium in urine of dogs after peroral administration of 3.76 uM/Kg of drug; assay type: ADME, organism-based, Canis lupus familiaris; details: dog, in vivo, po
Canis familiaris [19] = experiment: Ratio of Total electrolytic excretion of sodium and potassium in urine of dogs after peroral administration of 37.6 uM/Kg of drug; assay type: ADME, organism-based, Canis lupus familiaris; details: dog, in vivo, po
Rattus norvegicus [20] = experiment: Total electrolytic excretion of potassium in urine of rats after peroral administration of 3.76 uM/Kg of drug; assay type: ADME, organism-based; details: in vivo, po
Rattus norvegicus [21] = experiment: Tested for the diuretic activity by measuring the urinary volume after peroral administering 37.6 uM/Kg of drug in rats; assay type: ADME, organism-based, Urine; details: in vivo, po
Rattus norvegicus [22] = experiment: Tested for the diuretic activity by measuring the urinary volume after peroral administering 0 uM/Kg of drug in rats; assay type: ADME, organism-based, Urine; details: in vivo, po
Rattus norvegicus [23] = experiment: Total electrolytic excretion of chlorine in urine of rats after peroral administration of 113 uM/Kg of drug; assay type: ADME, organism-based; details: in vivo, po
Canis familiaris [24] = experiment: Ratio of Total electrolytic excretion of sodium and potassium in urine of dogs after peroral administration of 113 uM/Kg of drug; assay type: ADME, organism-based, Canis lupus familiaris; details: dog, in vivo, po
Rattus norvegicus [25] = experiment: Total electrolytic excretion of sodium in urine of rats after peroral administration of 0 uM/Kg of drug; assay type: ADME, organism-based; details: in vivo, po
Rattus norvegicus [26] = experiment: Total electrolytic excretion of chlorine in urine of rats after peroral administration of 11.3 uM/Kg of drug; assay type: ADME, organism-based; details: in vivo, po
Canis familiaris [27] = experiment: Total electrolytic excretion of chlorine in urine of dogs after peroral administration of 3.76 uM/Kg of drug; assay type: ADME, organism-based, Canis lupus familiaris; details: dog, in vivo, po
Rattus norvegicus [28] = experiment: Tested for the diuretic activity by measuring the urinary volume after peroral administering 113 uM/Kg of drug in rats; assay type: ADME, organism-based, Urine; details: in vivo, po
Rattus norvegicus [29] = experiment: Total electrolytic excretion of chlorine in urine of rats after peroral administration of 37.6 uM/Kg of drug; assay type: ADME, organism-based; details: in vivo, po
Canis familiaris [30] = experiment: Ratio of Total electrolytic excretion of sodium and potassium in urine of dogs after peroral administration of 11.3 uM/Kg of drug; assay type: ADME, organism-based, Canis lupus familiaris; details: dog, in vivo, po
Rattus norvegicus [31] = experiment: Total electrolytic excretion of potassium in urine of rats after peroral administration of 0 uM/Kg of drug; assay type: ADME, organism-based; details: in vivo, po
Canis familiaris [32] = experiment: Ratio of Total electrolytic excretion of sodium and potassium in urine of dogs after peroral administration of 1.13 uM/Kg of drug; assay type: ADME, organism-based, Canis lupus familiaris; details: dog, in vivo, po
Rattus norvegicus [33] = experiment: Total electrolytic excretion of sodium in urine of rats after peroral administration of 113 uM/Kg of drug; assay type: ADME, organism-based; details: in vivo, po
Rattus norvegicus [34] = experiment: Tested for the diuretic activity by measuring the urinary volume after peroral administering 1.13 uM/Kg of drug in rats; assay type: ADME, organism-based, Urine; details: in vivo, po
Canis familiaris [35] = experiment: Ratio of Total electrolytic excretion of sodium and potassium in urine of dogs after peroral administration of 0 uM/Kg of drug; assay type: ADME, organism-based, Canis lupus familiaris; details: dog, in vivo, po
Canis familiaris [36] = experiment: Tested for the diuretic activity by measuring the urinary volume after peroral administering 3.76 uM/Kg of drug in dogs; assay type: ADME, organism-based, Canis lupus familiaris, Urine; details: dog, in vivo, po
Rattus norvegicus [37] = experiment: Total electrolytic excretion of potassium in urine of rats after peroral administration of 1.13 uM/Kg of drug; assay type: ADME, organism-based; details: in vivo, po
Canis familiaris [38] = experiment: Total electrolytic excretion of potassium in urine of dogs after peroral administration of 3.76 uM/Kg of drug; assay type: ADME, organism-based, Canis lupus familiaris; details: dog, in vivo, po
Rattus norvegicus [39] = experiment: Total electrolytic excretion of sodium in urine of rats after peroral administration of 37.6 uM/Kg of drug; assay type: ADME, organism-based; details: in vivo, po
Rattus norvegicus [40] = experiment: Tested for the diuretic activity by measuring the urinary volume after peroral administering 3.76 uM/Kg of drug in rats; assay type: ADME, organism-based, Urine; details: in vivo, po
Rattus norvegicus [41] = experiment: Total electrolytic excretion of chlorine in urine of rats after peroral administration of 0 uM/Kg of drug; assay type: ADME, organism-based; details: in vivo, po
Rattus norvegicus [42] = experiment: Total electrolytic excretion of potassium in urine of rats after peroral administration of 11.3 uM/Kg of drug; assay type: ADME, organism-based; details: in vivo, po
Rattus norvegicus [43] = experiment: Total electrolytic excretion of chlorine in urine of rats after peroral administration of 3.76 uM/Kg of drug; assay type: ADME, organism-based; details: in vivo, po
Rattus norvegicus [44] = experiment: Total electrolytic excretion of sodium in urine of rats after peroral administration of 1.13 uM/Kg of drug; assay type: ADME, organism-based; details: in vivo, po
Rattus norvegicus [45] = experiment: Total electrolytic excretion of chlorine in urine of rats after peroral administration of 1.13 uM/Kg of drug; assay type: ADME, organism-based; details: in vivo, po
Rattus norvegicus [46] = experiment: Total electrolytic excretion of potassium in urine of rats after peroral administration of 113 uM/Kg of drug; assay type: ADME, organism-based; details: in vivo, po
Rattus norvegicus [47] = experiment: Tested for the diuretic activity by measuring the urinary volume after peroral administering 11.3 uM/Kg of drug in rats; assay type: ADME, organism-based, Urine; details: in vivo, po
Rattus norvegicus [48] = experiment: Total electrolytic excretion of sodium in urine of rats after peroral administration of 3.76 uM/Kg of drug; assay type: ADME, organism-based; details: in vivo, po

Excretion K+ (Rattus norvegicus [1]): 0.31 m equiv | Excretion Cl- (Rattus norvegicus [2]): 0.96 m equiv | Excretion Na+ (Rattus norvegicus [3]): 0.85 m equiv | Ratio (Rattus norvegicus [4]): 2.7 [Na+]/[K+] | V (Rattus norvegicus [5]): 5.6 mL | Ratio (Rattus norvegicus [6]): 3.9 [Na+]/[K+] | Excretion Cl- (Rattus norvegicus [7]): 1.31 m equiv | Excretion K+ (Rattus norvegicus [8]): 0.21 m equiv | Excretion Na+ (Rattus norvegicus [9]): 1.12 m equiv | V (Rattus norvegicus [10]): 8.4 mL | V (Rattus norvegicus [11]): 6.6 mL | Excretion Na+ (Rattus norvegicus [12]): 1.28 m equiv | Excretion K+ (Rattus norvegicus [13]): 0.33 m equiv | Ratio (Rattus norvegicus [14]): 5.2 [Na+]/[K+] | Excretion Cl- (Rattus norvegicus [15]): 1.01 m equiv
Compound: CC(C)CC/N=C(/NC1CCCCC1)N1CCOCC1

Compound: N=C(N)NC(=O)c1nc(Cl)c(N)nc1N [AMILORIDE]
Excretion K+ (Rattus norvegicus [16]): 0.05 m equiv | Excretion Na+ (Rattus norvegicus [17]): 2.17 m equiv | Excretion Na+ (Canis familiaris [18]): 9.5 m equiv | Ratio (Canis familiaris [19]): 45.2 [Na+]/[K+] | Excretion K+ (Rattus norvegicus [20]): 0.1 m equiv | V (Rattus norvegicus [21]): 13.9 mL | V (Rattus norvegicus [22]): 4.8 mL | Excretion Cl- (Rattus norvegicus [23]): 1.43 m equiv | Ratio (Canis familiaris [24]): 38.8 [Na+]/[K+] | Excretion Na+ (Rattus norvegicus [25]): 0.73 m equiv | Excretion Cl- (Rattus norvegicus [26]): 1.73 m equiv | Excretion Cl- (Canis familiaris [27]): 4.3 m equiv | V (Rattus norvegicus [28]): 9.4 mL | Excretion Cl- (Rattus norvegicus [29]): 1.86 m equiv | Ratio (Canis familiaris [30]): 30.8 [Na+]/[K+] | Excretion K+ (Rattus norvegicus [31]): 0.36 m equiv | Ratio (Canis familiaris [32]): 7.8 [Na+]/[K+] | Excretion Na+ (Rattus norvegicus [33]): 1.77 m equiv | V (Rattus norvegicus [34]): 7.2 mL | Ratio (Canis familiaris [35]): 2 [Na+]/[K+] | V (Canis familiaris [36]): 59 mL | Excretion K+ (Rattus norvegicus [37]): 0.17 m equiv | Excretion K+ (Canis familiaris [38]): 0.4 m equiv | Excretion Na+ (Rattus norvegicus [39]): 2.27 m equiv | V (Rattus norvegicus [40]): 9.1 mL | Excretion Cl- (Rattus norvegicus [41]): 0.78 m equiv | Excretion K+ (Rattus norvegicus [42]): 0.07 m equiv | Excretion Cl- (Rattus norvegicus [43]): 1.29 m equiv | Excretion Na+ (Rattus norvegicus [44]): 1.33 m equiv | Excretion Cl- (Rattus norvegicus [45]): 1.14 m equiv | Excretion K+ (Rattus norvegicus [46]): 0.05 m equiv | V (Rattus norvegicus [47]): 12.6 mL | Excretion Na+ (Rattus norvegicus [48]): 1.65 m equiv
